The source of these data is article PMC6099735, “Piplartine Analogues and Cytotoxic Evaluation against Glioblastoma” (Molecules : A Journal of Synthetic Chemistry and Natural …, 2018).

Molecules are shown by their SMILES. In brackets after ≈: the same amount, converted by molar mass.

In series [1] the test system is U87MG (human glioblastoma). Also noted: method as in PMID 25920262. Particulars: MTT test; cited from earlier work. (Tetrazolium dyes change colour on reduction, which living cells bring about.)
Series [2] concerns HL-60 (human leukemic cell). Also noted: method as in PMID 25920262. The note with it: MTT test; cited from earlier work.
For the next series, the system named is A2258 (human melanoma). Also noted: method as in PMID 25920262. The note with it: MTT test; cited from earlier work.
Series [3] deals with HCT (human colon carcinoma). Further details: method as in PMID 25920262. Particulars: MTT test; cited from earlier work.
Series [4] relates to BF16F10-Nex2 (murine melanoma). Also noted: method as in PMID 25920262. The note with it: MTT test; cited from earlier work.
In series [5] the test system is HeLa (human cervical carcinoma). Also noted: method as in PMID 25920262. Particulars: MTT test; cited from earlier work.
In series [6] the test system is U87MG cells. In words: Total antioxidant capacity (TAC) assay. The series is classed as cell-based, human. The note with it: 48 h, concentrations 0.78 and 50 μg/mL, compared with controls. As for the experimental part: (§1) The total antioxidant capacity (TAC) and the total oxidant status (TOS) levels were evaluated in samples from treated and untreated cultures using colorimetric measurement methods.
(§2) The commercially available kits were purchased from (Rel Assay Diagnostics®, Gaziantep, Turkey) to estimate the level of TAS and TOS. As a summary, the cells were seeded at 10^6 cells/well in 48-well plates, treated with compound 10 as described above. After 48 h incubation, plasma samples of treated and untreated cultures were transferred to a new plate, mixed with reaction solution and incubate for 10 min at room temperature. After that, the absorbance was read spectrophotometrically and the level of TAS and TOS were calculated according to the given equation.

Series [7] relates to U87MG cells. In words: Apoptosis detection by Hoechst 33,258 staining. In kind it is cell-based, human. Particulars: 48 h at IC50 concentration, compared with control group. As to the method:
Cell apoptosis induced by compound 10 was examined by Hoechst 33,258 staining and observed under a fluorescence microscope at 400× magnification.
The control and formulation treated cells were incubated for 48 h and were cultured in six-well cell culture plates for 48 h. after incubation, the medium was removed and the cells were fixed with 4% paraformaldehyde in phosphate buffered saline at 4 °C for 30 min. Following the washing cells three times with phosphate-buffered saline (PBS). The cells were then stained with 1 μL Hoechst 33,258 (5 μg/mL; Sigma-Aldrich, Saint Louis, MO, USA) and incubated at room temperature in the dark for 5 min. Changes in nuclear morphology were visualized under a fluorescent microscope (excitation, 350 nm; emission, 460 nm; Leica® DM IL LED, Wetzlar, Germany).

Series [8] concerns peripheral human whole blood (PHWB) cells. In words: Biosafety: MTT cytotoxicity on cultured blood cells. The series is classed as cell-based. Particulars: 0.78 to 50 μg/mL. As for the experimental part: (§3) To evaluate biosafety of 10, its cytotoxic and genotoxic potential were investigated on cultured peripheral human whole blood (PHWB) cells. Firstly, the cytotoxicity testing was performed by MTT and LDH assays. The human blood cells exposed to 0.78 to 50 μg/mL of 10. […] Afterwards, genotoxic potential was assessed by SCE testing and determination of 8-OH-dG.
(§4) Human peripheral blood cells were cultured in order to evaluate the biosafety of 10. To assess the cytotoxicity and genotoxicity potential of 10, MTT, LDH, Sister chromatid exchange (SCE) and 8-hydroxy-2′-deoxyguanosine assays were assessed on cultured blood cells.

The test system is the same in series [9]. In words: Biosafety: LDH cytotoxicity on cultured blood cells. The note with it: 0.78 to 50 μg/mL. The series is classed as cell-based. As to the method: as §3, §4
Series [10] has as its system U87MG cells. In words: MTT cell viability assay, cytotoxic activity against proliferation of U87MG cells. In kind it is cell-based, human. As to the method: To evaluate the cytotoxic potential of compounds 2–19 against human U87MG, glioblastoma cells were used with several concentrations (0 to 50 μg/mL). After 48 h of incubation, cell viability rates were established by MTT and LDH analysis. IC50 values of each analogue were determined due to observed cell viability results after MTT assay. All tested analogues led to inhibition of cellular proliferation rates as compared to untreated cells in a clear concentration and compound type dependent manners, as illustrated in Table 1 and Figure 2.
Human glioblastoma (GBM) cell line U87MG (American Type Culture Collection; Rockville, MD, USA) within passage number 15–20 were grown in an incubator at 37 °C in a humidified atmosphere of 5% CO2. They were grown in Eagle’s Minimal Essential Medium from Sigma-Aldrich (Saint Louis, MO, USA), supplemented with 10% fetal bovine serum (FBS) and 100 μg/mL of each of the following antibiotics: penicillin and streptomycin [66].
To examine the effects of compounds on cell viability, an MTT assay was performed. U87MG cells were seeded at 1 × 10^4 cells per well in 96-well plate and allowed to attach for 24 h. Then the cells were exposed to different concentrations of 2–19 (0.78, 1.56, 3.125, 6.25, 12.5, 25 and 50 μg/mL) for 48 h. All the compounds were dissolved in dimethyl sulfoxide (DMSO), and diluted in serum-free culture medium. After the incubation, a 3-(4,5-dimethylthiazol-2-yl)-2,5-diphenyltetrazolium bromide (MTT) solution was applied to cell cultures according to the manufacturer’s instructions (Cayman Chemical Company®, Ann Arbor, MI, USA). After 3 h of incubation, MTT-formazan crystals were dissolved in DMSO and absorbance was measured at 570 nm on a plate reader and compared with control, untreated cells. The half-maximal inhibitory concentration values (IC50) were determined by MTT assay performed in four replicates.

For series [11], the system named is peripheral human whole blood (PHWB) cells. In words: Sister chromatid exchange (SCE) testing. The series is classed as cell-based. Particulars: 72 h, vs control group. As to the method: as §3
Peripheral blood samples were incubated with 10 (50 μg/mL) at 37 °C for 72 h in culture medium (PB-MAX Karyotyping Medium, Gibco®, Baecelona, Spain) with 5.0 mg/mL of phytohemagglutinin (Sigma Aldrich, Steinheim, Germany). 5-Bromodeoxyuridine (BrdU) (10 μg/mL) was added to cell cultures at initiation. At 1.5 h before harvesting, colcemid (0.5 μg/mL) were added to cells. Then cells were treated with a hypotonic solution (0.075 M KCl), followed by three times fixation step in methanol/acetic acid (3:1, v/v). Cell suspensions were dropped on slides and air-dried. Three days later, the slides were stained according to the fluorescence plus Giemsa (FPG) procedure. Slides were observed under a fluorescence microscope and scores were calculated as SCEs per cell.

The subject of series [12] is U87MG cells. In words: qRT-PCR gene expression, custom plate with 15 cancer pathway genes. In kind it is cell-based, human. Particulars: IC50 concentration, 48 h. As for the experimental part: To find out the differences in the level of gene expression in U87MG cells exposed using compound 10, a custom plate with 15 different genes involved in cancer related pathways was used via qRT-PCR studies.
Total RNA was isolated from cultured cells using PureLink® RNA Mini Kit (Invitrogen, Carlsbad, MA, USA) following the instructions described by the manufacturer. For quantitative reverse-transcription polymerase chain reaction (qRT-PCR), RNA was reverse-transcribed to cDNA by using a High-Capacity cDNA Reverse Transcription kit (Applied Biosystems, Foster City, CA, USA) according to the manufacturer’s protocol. Real-time PCR analyses were performed using the resulting total cDNA on a TaqMan® custom plate (Applied Biosystems) designed with 15 different genes (EGFR, AKT1, AKT2, NFκB1, NFκB1A, NFκB2, PTEN, KRAS, PIK3CA, PIK3R1, TP53, RAF1, BRAF, DVL1, FOS). Results were normalized to the expression of 18SRNA. qRT-PCR and data collection were performed on 7500 Fast Real-Time PCR (Applied Biosystems). Data analyses were performed using the The Applied Biosystems 7500 Fast System SDS software (Foster City, CA, USA).
For orientation: In qPCR the cycle at which signal appears reflects the starting amount.

The subject of series [13] is U87MG cells. In words: Total oxidant status (TOS) assay. In kind it is cell-based, human. Particulars: 48 h, all the concentrations. As for the experimental part: as §1, §2
The mark [14] stands for this setting: significant = >0.5 fold change vs untreated.

In general, IC50 refers to the concentration that inhibits the measured activity by half. Turning to `COc1cc(/C=C/C(=O)N2CCC=CC2=O)cc(OC)c1OC` [Compound 1, Piplartine], the 50% inhibitory concentration (IC50) (in series [1]; in series [2]; in the series with A2258 (human melanoma); in series [3]; in series [4]; in [5]) was more than 200 µg/mL each time.

For `COc1cc(/C=C/C(=O)OC(c2ccccc2)c2ccccc2)cc(OC)c1OC` [Compound 10, (E)-Benzhydryl 3-(3,4,5-trimethoxyphenyl)acrylate], in the series on U87MG cells [6], the “total antioxidant capacity (TAC) levels” value was “significant increase of TAC levels”. Moreover, the “apoptosis (nuclear morphology, Hoechst 33,258 staining)” value in the series with U87MG cells [7] was “enhanced chromatin condensation and nuclear fragmentation were detected”. For the same compound, the “cytotoxicity on blood cells, cell proliferation (MTT assay)” value in series [8] was “did not lead to any significant (p > 0.05) changes in cell proliferation”. The “cytotoxicity on blood cells, cell proliferation (LDH assay)” value in [9] is reported as “did not lead to any significant (p > 0.05) changes in cell proliferation”. Besides, in the series with U87MG cells [10] (0 to 50 μg/mL, 48 h, MTT and LDH analysis, compared to untreated cells), the “cell viability / cellular proliferation rates” value is on record as “marked concentration-dependent inhibitory effect”. Moreover, in the series on U87MG cells [10] (Homo sapiens, U-87 MG, MTT assay, 48 h exposure, 0.78-50 μg/mL, mean ± SEM of four experiments), the midpoint of inhibition, the IC50, lay at 2.58 ± 0.35 µg/mL (≈ 6.38 µM). Further, the “genotoxicity, frequencies of SCEs” value in series [11] was “not significant differences in the frequencies of SCEs”. In addition, the “gene expression of BRAF, DVL1, EGFR, FOS, KRAS, NF-ĸB1A, RAF1, PIK3CA and PIK3R1” value in the series with U87MG cells [12] (<0.5 fold change) is “slight and insignificant alterations”. Also, in the series with U87MG cells [12] (setting [14]), the AKT1 gene expression entry is on record as “down-regulated” and the AKT2 gene expression result is reported as “down-regulated”. For the same compound, in the series with U87MG cells [12] (vs untreated), the NF-ĸB1 gene expression result is on record as “up-regulated”, the NF-ĸB2 gene expression entry is “up-regulated”, the PTEN gene expression result is listed as “up-regulated” and the TP53 gene expression result was “up-regulated”. For the same compound, the “total oxidant status (TOS) levels” value in the series with U87MG cells [13] is “did not change the TOS levels”.
